Consider 14 molecules from ChEMBL document CHEMBL5465560, “Selectivity Literature for EUbOPEN Chemogenomic Library” (2024).

For assay [1], the system named is Epidermal growth factor receptor (Homo sapiens), P00533 [UNDEFINED MUTATION]. The assay is described as follows: Selectivity interaction (Ambit KINOMEscan and KiNATiv profiling in Jurkat cells) EUB0000090b EGFR. The format is cell-based. As to conditions: at 1 µM.
Assay [2] concerns the target Cyclin-dependent kinase 4/cyclin D1 (Homo sapiens) (UniProt P11802+P24385). As to conditions: at 10 µM.
The target of assay [3] is Serine/threonine-protein kinase Chk2 (Homo sapiens) (UniProt O96017). The assay is described as follows: Selectivity interaction (Kinase panel (DSF assay)) EUB0001558a CHEK2. For orientation: In DSF a fluorescence change marks the thermal transition of the protein.
Chain of Serine/threonine-protein kinase Chk2 (Homo sapiens) (O96017 whole entry): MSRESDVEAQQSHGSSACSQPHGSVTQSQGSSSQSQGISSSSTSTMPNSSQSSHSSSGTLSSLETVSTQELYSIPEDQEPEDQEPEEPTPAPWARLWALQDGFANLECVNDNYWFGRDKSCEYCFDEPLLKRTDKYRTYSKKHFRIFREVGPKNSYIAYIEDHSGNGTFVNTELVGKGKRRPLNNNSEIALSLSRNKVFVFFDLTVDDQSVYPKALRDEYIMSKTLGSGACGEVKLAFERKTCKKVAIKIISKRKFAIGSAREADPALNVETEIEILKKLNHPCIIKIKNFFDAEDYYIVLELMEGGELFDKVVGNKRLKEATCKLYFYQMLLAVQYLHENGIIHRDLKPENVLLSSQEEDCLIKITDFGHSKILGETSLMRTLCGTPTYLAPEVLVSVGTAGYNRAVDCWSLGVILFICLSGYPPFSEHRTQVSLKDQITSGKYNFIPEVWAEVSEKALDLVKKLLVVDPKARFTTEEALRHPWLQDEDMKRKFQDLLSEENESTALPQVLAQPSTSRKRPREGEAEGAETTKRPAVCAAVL
The test system of assay [4] is Tyrosine-protein kinase ABL1 (Homo sapiens), P00519 [Q252H]. In words: Selectivity interaction (KinomeScan (DiscoverX)) EUB0000229b ABL1. To be noted: at 1 µM.
In assay [5] the target is T1, Tyrosine-protein kinase ITK/TSK (Homo sapiens) (UniProt Q08881).
T1 sequence (whole entry): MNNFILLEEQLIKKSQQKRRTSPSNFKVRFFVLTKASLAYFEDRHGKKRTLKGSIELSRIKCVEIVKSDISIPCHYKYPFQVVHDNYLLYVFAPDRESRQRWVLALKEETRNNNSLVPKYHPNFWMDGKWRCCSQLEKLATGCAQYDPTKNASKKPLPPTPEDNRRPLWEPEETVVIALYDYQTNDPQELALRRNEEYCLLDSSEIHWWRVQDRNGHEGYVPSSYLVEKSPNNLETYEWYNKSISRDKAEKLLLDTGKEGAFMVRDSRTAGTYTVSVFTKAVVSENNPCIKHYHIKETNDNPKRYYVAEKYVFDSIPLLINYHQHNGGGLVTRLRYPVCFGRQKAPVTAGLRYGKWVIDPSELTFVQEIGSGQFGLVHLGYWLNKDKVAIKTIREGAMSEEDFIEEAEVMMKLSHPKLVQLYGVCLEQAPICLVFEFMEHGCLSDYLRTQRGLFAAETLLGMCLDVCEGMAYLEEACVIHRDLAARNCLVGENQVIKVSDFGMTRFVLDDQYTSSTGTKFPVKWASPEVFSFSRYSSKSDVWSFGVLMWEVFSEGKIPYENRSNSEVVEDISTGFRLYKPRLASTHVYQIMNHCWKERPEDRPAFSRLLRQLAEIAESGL
In words: Selectivity interaction (KinomeScan (DiscoverX)) EUB0000655a ITK. As to conditions: at 10 µM.

For assay [6], the target named is T2, Serine/threonine-protein kinase Nek2 (Homo sapiens) (UniProt P51955).
T2 sequence (whole entry): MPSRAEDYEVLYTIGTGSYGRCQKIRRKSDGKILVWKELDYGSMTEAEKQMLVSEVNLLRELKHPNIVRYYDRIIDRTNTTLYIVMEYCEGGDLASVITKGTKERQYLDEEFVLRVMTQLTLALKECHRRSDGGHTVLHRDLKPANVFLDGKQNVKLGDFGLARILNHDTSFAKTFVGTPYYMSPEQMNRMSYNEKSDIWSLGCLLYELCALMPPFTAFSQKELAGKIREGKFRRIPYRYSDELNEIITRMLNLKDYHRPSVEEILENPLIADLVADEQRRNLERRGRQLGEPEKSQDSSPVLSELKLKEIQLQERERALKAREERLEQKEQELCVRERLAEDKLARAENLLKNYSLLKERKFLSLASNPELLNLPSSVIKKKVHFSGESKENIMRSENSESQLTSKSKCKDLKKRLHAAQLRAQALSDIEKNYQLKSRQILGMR
The assay is described as follows: Selectivity interaction (KinomeScan (DiscoverX)) EUB0001079a NEK2. To be noted: at 1 µM.

For assay [7], the system named is Fibroblast growth factor receptor 3 (Homo sapiens), P22607 [G697C]. In words: (§1) Selectivity interaction (KinomeScan (DiscoverX)) EUB0001079a FGFR3. To be noted: at 1 µM.
Assay [8] concerns the target Fibroblast growth factor receptor 3 (Homo sapiens, UniProt P22607). Described as §1. To be noted: at 1 µM.
Assay [9] has as its target Serine/threonine-protein kinase 24 (Homo sapiens) (UniProt Q9Y6E0). In words: Selectivity interaction (ActivX KiNativ screen (kinase selectivity in THP-1 cell lysates)) EUB0000639a STK24. To be noted: lysate, at 0.2 µM. The format is subcellular.
For assay [10], the target named is Tyrosine-protein kinase SYK (Homo sapiens, UniProt P43405). In words: Selectivity interaction (ActivX KiNativ screen (kinase selectivity in THP-1 cell lysates)) EUB0000639a SYK. As to conditions: lysate. The format is subcellular.
Assay [11] has as its target Non-receptor tyrosine-protein kinase TYK2 (Homo sapiens, UniProt P29597). As to conditions: at 10 µM.
Assay [12] addresses Cyclin-dependent kinase-like 3 (Homo sapiens) (UniProt Q8IVW4). In words: Selectivity interaction (KinomeScan (DiscoverX)) EUB0001049a CDKL3. To be noted: at 1 µM.
Assay [13] concerns the target Cyclin-dependent kinase 2 (Homo sapiens, UniProt P24941). In words: Selectivity interaction (KinomeScan (DiscoverX)) EUB0001049a CDK2. As to conditions: at 1 µM.
Assay [14] concerns the target Phosphorylase b kinase gamma catalytic chain, skeletal muscle/heart isoform (Homo sapiens) (UniProt Q16816). In words: Selectivity interaction (KinomeScan (DiscoverX)) EUB0000695a PHKG1. To be noted: at 100 nM.
The target in assay [15] is Serine/threonine-protein kinase WNK1 (Homo sapiens) (UniProt Q9H4A3). In words: Selectivity interaction (ProQinase) EUB0000171b WNK1.
Chain of Serine/threonine-protein kinase WNK1 (Homo sapiens) (Q9H4A3 whole entry, looked up): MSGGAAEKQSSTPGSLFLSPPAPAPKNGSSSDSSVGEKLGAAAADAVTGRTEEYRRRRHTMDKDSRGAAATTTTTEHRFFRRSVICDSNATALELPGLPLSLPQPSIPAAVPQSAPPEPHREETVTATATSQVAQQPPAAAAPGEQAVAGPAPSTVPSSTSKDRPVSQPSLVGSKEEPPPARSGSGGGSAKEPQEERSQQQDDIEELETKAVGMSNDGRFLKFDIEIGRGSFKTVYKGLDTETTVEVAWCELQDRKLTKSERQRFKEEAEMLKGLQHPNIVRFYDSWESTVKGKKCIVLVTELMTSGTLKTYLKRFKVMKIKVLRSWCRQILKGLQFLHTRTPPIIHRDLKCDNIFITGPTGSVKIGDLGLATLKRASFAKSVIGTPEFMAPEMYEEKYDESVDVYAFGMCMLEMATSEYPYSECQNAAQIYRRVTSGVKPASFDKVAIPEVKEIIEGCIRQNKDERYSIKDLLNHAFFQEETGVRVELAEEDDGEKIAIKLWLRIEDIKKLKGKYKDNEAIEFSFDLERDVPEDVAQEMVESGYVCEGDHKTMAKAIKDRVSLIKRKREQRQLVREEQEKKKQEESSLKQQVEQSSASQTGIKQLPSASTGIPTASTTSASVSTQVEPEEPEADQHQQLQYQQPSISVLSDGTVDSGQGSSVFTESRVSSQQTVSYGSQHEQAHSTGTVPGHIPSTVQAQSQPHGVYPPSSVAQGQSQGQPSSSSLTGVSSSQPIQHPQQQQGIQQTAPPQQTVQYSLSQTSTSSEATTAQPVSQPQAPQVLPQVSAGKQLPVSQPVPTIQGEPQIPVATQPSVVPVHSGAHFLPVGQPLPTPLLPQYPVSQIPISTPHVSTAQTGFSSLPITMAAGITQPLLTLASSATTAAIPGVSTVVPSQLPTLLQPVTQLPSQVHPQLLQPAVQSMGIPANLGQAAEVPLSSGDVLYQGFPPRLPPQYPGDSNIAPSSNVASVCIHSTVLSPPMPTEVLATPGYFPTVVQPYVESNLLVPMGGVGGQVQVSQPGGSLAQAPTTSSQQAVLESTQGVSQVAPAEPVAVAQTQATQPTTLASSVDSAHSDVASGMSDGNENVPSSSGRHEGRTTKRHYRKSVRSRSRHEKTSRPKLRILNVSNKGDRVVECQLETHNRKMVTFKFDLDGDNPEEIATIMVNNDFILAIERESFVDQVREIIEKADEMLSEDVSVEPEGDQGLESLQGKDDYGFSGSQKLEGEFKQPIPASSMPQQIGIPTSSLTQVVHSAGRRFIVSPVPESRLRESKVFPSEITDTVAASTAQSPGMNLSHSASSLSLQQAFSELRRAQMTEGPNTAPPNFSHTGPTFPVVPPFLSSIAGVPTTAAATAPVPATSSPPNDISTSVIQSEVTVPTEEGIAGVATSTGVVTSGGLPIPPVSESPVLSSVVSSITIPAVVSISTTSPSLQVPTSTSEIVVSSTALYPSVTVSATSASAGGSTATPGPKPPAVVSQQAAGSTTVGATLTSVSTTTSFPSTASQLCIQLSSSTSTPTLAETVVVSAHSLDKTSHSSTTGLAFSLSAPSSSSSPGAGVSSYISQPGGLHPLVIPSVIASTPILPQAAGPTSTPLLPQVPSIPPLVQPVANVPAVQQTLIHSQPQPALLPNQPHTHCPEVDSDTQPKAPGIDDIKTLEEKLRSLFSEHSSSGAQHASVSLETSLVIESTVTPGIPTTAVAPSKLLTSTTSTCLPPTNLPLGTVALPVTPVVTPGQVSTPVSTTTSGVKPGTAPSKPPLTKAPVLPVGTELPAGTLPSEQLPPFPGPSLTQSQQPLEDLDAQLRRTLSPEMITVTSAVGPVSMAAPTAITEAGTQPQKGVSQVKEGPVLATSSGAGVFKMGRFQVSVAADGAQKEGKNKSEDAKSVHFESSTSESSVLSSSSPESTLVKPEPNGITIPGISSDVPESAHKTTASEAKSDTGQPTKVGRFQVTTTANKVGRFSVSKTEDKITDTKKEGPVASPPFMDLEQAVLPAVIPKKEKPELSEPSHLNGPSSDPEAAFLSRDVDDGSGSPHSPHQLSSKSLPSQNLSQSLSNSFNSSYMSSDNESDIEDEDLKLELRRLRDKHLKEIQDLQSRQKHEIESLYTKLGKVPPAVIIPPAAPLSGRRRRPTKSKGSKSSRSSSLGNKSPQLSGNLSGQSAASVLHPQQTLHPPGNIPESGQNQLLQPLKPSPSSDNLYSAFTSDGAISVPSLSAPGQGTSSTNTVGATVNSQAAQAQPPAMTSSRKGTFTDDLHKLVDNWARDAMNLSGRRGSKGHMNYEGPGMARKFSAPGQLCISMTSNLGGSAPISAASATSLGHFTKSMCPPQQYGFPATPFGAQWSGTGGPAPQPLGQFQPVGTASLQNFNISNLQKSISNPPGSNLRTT
In assay [16] the target is T3, Activin receptor type-1 (Homo sapiens) (UniProt Q04771).
T3 sequence (whole entry): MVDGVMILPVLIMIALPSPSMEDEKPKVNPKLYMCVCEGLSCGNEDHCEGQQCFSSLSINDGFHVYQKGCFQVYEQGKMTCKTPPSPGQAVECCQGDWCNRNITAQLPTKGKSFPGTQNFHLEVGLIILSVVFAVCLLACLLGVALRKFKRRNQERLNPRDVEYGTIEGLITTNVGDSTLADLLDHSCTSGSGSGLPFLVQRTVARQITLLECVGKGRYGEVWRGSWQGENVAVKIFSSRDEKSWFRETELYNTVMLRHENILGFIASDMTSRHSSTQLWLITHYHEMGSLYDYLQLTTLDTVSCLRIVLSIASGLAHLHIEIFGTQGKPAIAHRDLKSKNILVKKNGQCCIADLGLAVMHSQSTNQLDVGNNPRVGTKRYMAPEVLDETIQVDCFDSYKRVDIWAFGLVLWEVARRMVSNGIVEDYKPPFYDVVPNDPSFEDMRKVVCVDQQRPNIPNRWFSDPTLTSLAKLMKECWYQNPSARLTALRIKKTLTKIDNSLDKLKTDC
The assay is described as follows: Selectivity interaction (KinomeScan (DiscoverX)) EUB0000092b ACVR1. As to conditions: at 10 µM.

Assay [17] deals with Fibroblast growth factor receptor 2 (Homo sapiens) (UniProt P21802). The assay is described as follows: Selectivity interaction (KinomeScan (DiscoverX)) EUB0000092b FGFR2. As to conditions: at 10 µM.
Assay [18] deals with Casein kinase II subunit alpha' (Homo sapiens) (UniProt P19784). In words: Selectivity interaction (KinomeScan (DiscoverX)) EUB0000045b CSNK2A2.
Chain of Casein kinase II subunit alpha' (Homo sapiens) (P19784 whole entry, looked up): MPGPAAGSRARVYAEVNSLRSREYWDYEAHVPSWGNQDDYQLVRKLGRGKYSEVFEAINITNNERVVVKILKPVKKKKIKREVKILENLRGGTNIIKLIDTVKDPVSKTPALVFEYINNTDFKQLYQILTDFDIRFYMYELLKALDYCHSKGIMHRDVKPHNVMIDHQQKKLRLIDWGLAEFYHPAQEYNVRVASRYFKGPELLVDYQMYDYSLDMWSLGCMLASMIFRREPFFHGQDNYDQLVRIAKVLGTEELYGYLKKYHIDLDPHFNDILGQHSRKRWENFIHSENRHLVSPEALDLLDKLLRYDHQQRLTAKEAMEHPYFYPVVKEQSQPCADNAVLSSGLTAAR
For assay [19], the target named is Dual specificity mitogen-activated protein kinase kinase 2 (Homo sapiens) (UniProt P36507). The assay is described as follows: Selectivity interaction (KinomeScan (DiscoverX)) EUB0000595a MAP2K2. To be noted: at 10 µM.
Chain of Dual specificity mitogen-activated protein kinase kinase 2 (Homo sapiens) (P36507 whole entry): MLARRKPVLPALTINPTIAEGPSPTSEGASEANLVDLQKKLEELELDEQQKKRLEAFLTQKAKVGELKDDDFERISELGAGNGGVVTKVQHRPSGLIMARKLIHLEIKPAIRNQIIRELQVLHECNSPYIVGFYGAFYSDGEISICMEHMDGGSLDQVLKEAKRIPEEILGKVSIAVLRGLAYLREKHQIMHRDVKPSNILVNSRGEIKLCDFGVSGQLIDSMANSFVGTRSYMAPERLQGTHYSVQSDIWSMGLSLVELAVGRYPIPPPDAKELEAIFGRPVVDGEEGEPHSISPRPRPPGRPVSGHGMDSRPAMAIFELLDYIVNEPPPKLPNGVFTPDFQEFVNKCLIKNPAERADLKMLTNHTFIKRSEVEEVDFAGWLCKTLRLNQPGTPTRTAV

Chain of Phosphorylase b kinase gamma catalytic chain, skeletal muscle/heart isoform (Homo sapiens) (Q16816 whole entry, looked up, canonical isoform): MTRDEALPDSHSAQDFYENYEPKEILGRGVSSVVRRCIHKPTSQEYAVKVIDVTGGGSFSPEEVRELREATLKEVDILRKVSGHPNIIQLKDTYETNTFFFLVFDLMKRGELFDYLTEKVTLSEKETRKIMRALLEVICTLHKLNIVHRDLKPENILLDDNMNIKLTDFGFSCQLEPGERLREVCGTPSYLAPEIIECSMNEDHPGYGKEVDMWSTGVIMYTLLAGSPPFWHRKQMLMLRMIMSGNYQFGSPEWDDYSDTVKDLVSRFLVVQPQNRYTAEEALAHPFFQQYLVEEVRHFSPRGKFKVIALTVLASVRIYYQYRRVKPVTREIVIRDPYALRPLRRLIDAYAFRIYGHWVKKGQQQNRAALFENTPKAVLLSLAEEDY
Chain of Fibroblast growth factor receptor 3 (P22607 23-806 limits assumed): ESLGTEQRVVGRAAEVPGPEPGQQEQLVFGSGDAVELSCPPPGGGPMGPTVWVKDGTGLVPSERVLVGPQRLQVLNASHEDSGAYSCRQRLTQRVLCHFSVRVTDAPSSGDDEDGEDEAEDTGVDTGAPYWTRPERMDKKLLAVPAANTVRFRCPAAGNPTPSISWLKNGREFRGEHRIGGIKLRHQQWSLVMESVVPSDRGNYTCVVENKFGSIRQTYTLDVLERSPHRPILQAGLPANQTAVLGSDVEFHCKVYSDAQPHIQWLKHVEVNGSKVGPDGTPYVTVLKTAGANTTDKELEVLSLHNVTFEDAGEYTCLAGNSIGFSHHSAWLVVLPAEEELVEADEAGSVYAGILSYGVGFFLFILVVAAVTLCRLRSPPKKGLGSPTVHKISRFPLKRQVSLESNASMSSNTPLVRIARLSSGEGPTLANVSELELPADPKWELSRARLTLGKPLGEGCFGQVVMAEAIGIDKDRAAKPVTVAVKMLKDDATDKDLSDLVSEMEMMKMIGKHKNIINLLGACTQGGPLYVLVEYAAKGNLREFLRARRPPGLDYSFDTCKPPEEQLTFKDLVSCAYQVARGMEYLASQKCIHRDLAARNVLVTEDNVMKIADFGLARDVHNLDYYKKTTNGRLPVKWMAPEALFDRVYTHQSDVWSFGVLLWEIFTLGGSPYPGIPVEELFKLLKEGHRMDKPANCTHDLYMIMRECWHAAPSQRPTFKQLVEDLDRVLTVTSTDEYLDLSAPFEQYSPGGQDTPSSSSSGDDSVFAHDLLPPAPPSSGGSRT

The molecule `CN(C)C/C=C/C(=O)Nc1ccc(C(=O)N2CCCC(Nc3ncc(Cl)c(-c4c[nH]c5ccccc45)n3)C2)cc1` (stereo not given) registered a % of control in assay [1] of 94%. Regarding `Cc1cc([C@@H](C)Nc2ccccc2C(=O)O)c2nc(N3CCOCC3)cc(=O)n2c1` [AZD-6482], in assay [2], the % of control worked out at 100%. In assay [3], `CC(C)(O)[C@H](F)CN1Cc2cc(NC(=O)c3cnn4cccnc34)c(N3CCOCC3)cc2C1=O` displayed a dTM of 1.5 K. Regarding `COc1cc(N(C)c2ccnc3ccc(C(F)(F)F)cc23)cc(OC)c1OC`, in assay [4], the % binding was found to be 91%. In assay [5], `CN(C)CCOc1ccc(-c2nc(-c3ccncc3)c(-c3ccc4c(c3)CC/C4=N\O)[nH]2)cc1` came in with a % of control of 98%. For `Nc1cnc(N2CCc3cc(S(=O)(=O)Nc4c(F)cc(Cl)cc4F)cc(N4CCCC4=O)c32)nc1` [TP-020n], the % of control in assay [6] came out at 89%; in assay [7] it was 89%; in [8], 100%. Consider `CC[C@@H]1[C@H](F)C(=O)N[C@@H]1COc1nccc2cc(C(N)=O)c(OC)cc12` [ZIMLOVISERTIB], for which the % of inhibition in assay [9] was determined as 5.6%; in assay [10] (at 0.01 µM), 3.2%; in assay [10] (at 0.04 µM) it was 14.7%; in assay [10] (at 0.2 µM), 7.1%; in [10] (at 1 µM), 16.1%; in [10] (at 5 µM), 2.5%. In turn, `CCN(CC)CCCCNc1ncc2cc(-c3cc(OC)cc(OC)c3)c(NC(=O)NC(C)(C)C)nc2n1` yielded a % of control in assay [11] of 100%. Turning to `COc1cc(Nc2nc(C)cc(-c3cnn4nc(OC)ccc34)n2)cc(C(F)(F)F)c1`, the % of control in assay [12] stood at 94%; in [13] it was 91%. `Cc1cc(F)c(C(=O)Nc2cccc(-c3nncn3C(C)C)n2)cc1-n1cnc(C2CC2)c1` showed a % of control in assay [14] of 98%. As for `C=CC(=O)Nc1cccc(C(=O)Nc2ccc(Nc3cc(-c4[nH]c(SC)nc4C)ccn3)cc2)c1`, the % of control is 95% in assay [15] (at 1 µM) and 81% in assay [15] (at 5 µM). For the molecule `CCC(=O)N1CCN(c2ccc(-n3c(=O)ccc4cnc5ccc(-c6cnc7ccccc7c6)cc5c43)cc2C(F)(F)F)CC1`, the % of control in assay [16] stood at 28%; in assay [17] it was 55%. Turning to `C=CC(=O)Nc1cc(-n2c(=O)ccc3cnc4ccc(-c5ccc(NS(C)(=O)=O)cc5)cc4c32)ccc1C`, the % of control in assay [18] (at 1 µM) came to 100%; in [18] (at 10 µM), 67%. `COCC(=O)NC/C=C/c1ccc2ncnc(Nc3ccc(Oc4ccc(C)nc4)c(C)c3)c2c1` [CP-724714]: the % of control in [19] amounted to 11%.
